Laboratory results reported in patent US20110082220A1, “PORCINE UMAMI TASTE RECEPTORS AND USES THEREFOR” (The Regents of The University of California, priority 2007, published 2011).
Where “and” joins values, the source holds several entries; their conditions need not be identical. Equal entries are not always repeated.

Assays:
[1] = test system: weaned piglets; test: Double-choice preference test in drinking water, weaned piglets; type: in vivo, pigs (Landrace×Large White); details: 0.5 M solution vs tap water; for % of preference Mean: two minutes, ad libitum conditions
Description: This example tests preferences in drinking water for amino acids L-Glutamine and L-Lysine in weaned piglets maintained in ad libitum conditions.
A total number of 58 pigs (Landrace×Large White) of 18±2 Kg BW, half males and half females, were used in this study. The test pigs were selected according to their level of stress and behaviour in front of social isolation, reaction to novelty and training to perform a choice between two containers that had the test solution (sugar at 0.5M) and control solution (tap water) after an habituation period of four days. During the habituation period, individual pigs were maintained in contiguous pens in front of two unfamiliar red plastic containers (double-choice test) during 10 minutes every day. On the fourth day, animals were trained for performing the test. […] Selected test animals were maintained in groups of four and three pen mates under ad libitum conditions, feed and water, with a balanced diet according to their requirements. During the experimental sessions, pigs were exposed simultaneously to two different solutions (approximately 250 g in each container) for a time period of two minutes. One of the solutions was tap water (control) and the other contained a 0.5M solution of one of the amino acids tested (test). Volume depletion of both test and control solutions were recorded and the % preference related to the test solution calculated as follows: […]

[2] = test system: Pig umami receptor (T1R1/T1R3); test: Screening assay for ligands: calcium influx via pig umami receptor in transfected CHO-K1 cells (Fluo-4 NW); type: cell-based; details: for stimulation of the pig umami receptor (signal, in words): CHO-K1 cell system, calcium signal; for response index: example test run, background (no treatment) = response ratio 1.0, concentration not given; for Absorbance Mean: CHO-K1 cells with pig taste receptors and mouse G alpha 15; for Index Relative to control: ratio of calcium influx to control (no treatment = 1.00)

NCCCC[C@H](N)C(=O)O [L-Lysine]
preference (in words) [1]: negative preference
% of preference Mean [1]: 37.66%
preferences over tap water ([1]; study not given): about 38%
stimulation of the pig umami receptor (signal, in words) [2]: little or no capacity

C[C@H](N)C(=O)O [alanine]
response index [2]: 3.47

O=P(O)(O)O[C@@H]1[C@@H](O)[C@H](O)[C@@H](O)[C@H](O)[C@@H]1O [IMP, inositol monophosphate]
Absorbance Mean ([2]; treatment 2.5 mM): 9161
Index Relative to control ([2]; treatment 2.5 mM): 1.10

NC(=O)CC[C@H](N)C(=O)O [Glutamine, L-Glutamine]
% of preference Mean [1]: 59.56% and 79.28%
preferences over tap water ([1]; 1st study): 60%
preferences over tap water ([1]; 2nd study): 79%
stimulation of the pig umami receptor (signal, in words) ([2]; listed as L-Glutamine): high degree of stimulation
stimulation of the pig umami receptor (signal, in words) ([2]; listed as glutamine): the strongest and the most significant signal
Absorbance Mean ([2]; treatment 1 mM): 10901
Index Relative to control ([2]; treatment 1 mM): 1.31^1
Absorbance Mean ([2]; treatment 10 mM): 10038
Index Relative to control ([2]; treatment 10 mM): 1.20^1

N[C@@H](CC(=O)O)C(=O)O [Aspartate]
Absorbance Mean ([2]; treatment 1 mM): 8619
Index Relative to control ([2]; treatment 1 mM): 1.03
Absorbance Mean ([2]; treatment 10 mM): 10352
Index Relative to control ([2]; treatment 10 mM): 1.24^1

NC(CCP(=O)(O)O)C(=O)O [L-AP4]
Absorbance Mean ([2]; treatment 5 mM): 8907
Index Relative to control ([2]; treatment 5 mM): 1.07
Absorbance Mean ([2]; treatment 10 mM): 9316
Index Relative to control ([2]; treatment 10 mM): 1.12

N[C@@H](CO)C(=O)O [Serine]
Absorbance Mean ([2]; treatment 5 mM): 8372
Index Relative to control ([2]; treatment 5 mM): 1.00
Absorbance Mean ([2]; treatment 10 mM): 9697
Index Relative to control ([2]; treatment 10 mM): 1.16

CC(C)C[C@H](N)C(=O)O [Leucine]
stimulation of the pig umami receptor (signal, in words) [2]: the strongest and the most significant signal
Absorbance Mean ([2]; treatment 10 mM): 9163
Index Relative to control ([2]; treatment 10 mM): 1.10
Absorbance Mean ([2]; treatment 30 mM): 10161
Index Relative to control ([2]; treatment 30 mM): 1.22^1

NCC(=O)O [Glycine]
Absorbance Mean ([2]; treatment 1 mM): 8874
Index Relative to control ([2]; treatment 1 mM): 1.06
Absorbance Mean ([2]; treatment 5 mM): 9543
Index Relative to control ([2]; treatment 5 mM): 1.14

C/C=C(/C)C(=O)O[C@H]1C(C)=C2[C@H]([C@@H]1OC(=O)CCCCCCC)[C@@](C)(OC(C)=O)C[C@H](OC(=O)CCC)[C@@]1(O)[C@H]2OC(=O)[C@@]1(C)O [thapsigargin, reference compound]
response index [2]: 17.89

N[C@@H](CS)C(=O)O [cysteine]
response index [2]: 0.83

Cl.NCCCC[C@H](N)C(=O)O [Lysine HCl]
Absorbance Mean ([2]; treatment 10 mM): 9319
Index Relative to control ([2]; treatment 10 mM): 1.12
Absorbance Mean ([2]; treatment 30 mM): 9675
Index Relative to control ([2]; treatment 30 mM): 1.16
